Data as given in PubChem BioAssay AID1963966 (Molecular Pharmacology Branch, DTP, NCI, 2024).
Several values for one entry are separate records, joined by “and”; a condition that tells them apart may be missing. Identical values can stand only once.

Tested on: 935938-334-R-J1-PDC spheroids with HUVEC/MSC, viability
Test: Anticancer human tumor 935938-334-R-J1-PDC patient-derived small intestine adenocarcinoma cell line growth inhibition [PI3K]
Conditions: for viability, T/C: stronger effect = lower value; active = viability on the fitted dose curve at most 10% of control; inactive = the rest
Outline: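 Three cell types, namely tumor cells, endothelial cells and mesenchymal stem cells, formed each spheroid. Combinations with four PI3K inhibitors were screened at clinically achievable concentrations decreasing by half-log, and spheroid viability was recorded.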

[1] = curve of first compound, second compound 0.00316 µM
[2] = curve of first compound, second compound 0.01 µM
[3] = curve of first compound, second compound 0.0316 µM
[4] = curve of first compound, second compound 0.1 µM
[5] = curve of first compound, second compound 0.316 µM
[6] = curve of first compound, second compound 1 µM
[7] = second compound 0.00316 µM, first compound 0.00316 µM
[8] = second compound 0.00316 µM, first compound 0.01 µM
[9] = second compound 0.00316 µM, first compound 0.0316 µM
[10] = second compound 0.00316 µM, first compound 0.1 µM
[11] = second compound 0.01 µM, first compound 0.00316 µM
[12] = second compound 0.01 µM, first compound 0.01 µM
[13] = second compound 0.01 µM, first compound 0.0316 µM
[14] = second compound 0.01 µM, first compound 0.1 µM
[15] = second compound 0.0316 µM, first compound 0.00316 µM
[16] = second compound 0.0316 µM, first compound 0.01 µM
[17] = second compound 0.0316 µM, first compound 0.0316 µM
[18] = second compound 0.0316 µM, first compound 0.1 µM
[19] = second compound 0.1 µM, first compound 0.00316 µM
[20] = second compound 0.1 µM, first compound 0.01 µM
[21] = second compound 0.1 µM, first compound 0.0316 µM
[22] = second compound 0.1 µM, first compound 0.1 µM
[23] = second compound 0.316 µM, first compound 0.00316 µM
[24] = second compound 0.316 µM, first compound 0.01 µM
[25] = second compound 0.316 µM, first compound 0.0316 µM
[26] = second compound 0.316 µM, first compound 0.1 µM
[27] = second compound 1 µM, first compound 0.00316 µM
[28] = second compound 1 µM, first compound 0.01 µM
[29] = second compound 1 µM, first compound 0.0316 µM
[30] = second compound 1 µM, first compound 0.1 µM
[31] = second compound 0.0316 µM, first compound 0.316 µM
[32] = second compound 0.0316 µM, first compound 1 µM
[33] = second compound 0.1 µM, first compound 0.316 µM
[34] = second compound 0.1 µM, first compound 1 µM
[35] = second compound 0.316 µM, first compound 0.316 µM
[36] = second compound 0.316 µM, first compound 1 µM
[37] = second compound 1 µM, first compound 0.316 µM
[38] = second compound 1 µM, first compound 1 µM
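Note: compound exposure lasted seven days before viability was read.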
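Throughout, for viability, T/C: percent of vehicle DMSO treated spheroid viability so 100% = untreated.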

CC(=O)c1c(C)c2cnc(Nc3ccc(N4CCNCC4)cn3)nc2n(C2CCCC2)c1=O + COc1c(OCCCN2CCOCC2)ccc2c3n(c(=NC(=O)c4cnc(N)nc4)nc12)CCN3
> 100 nM: IC50 [1] | IC50 [2] | IC50 [3]
inactive: viability, T/C (second compound 0.00316 µM, first compound 0.000316 µM) 94.8% | viability, T/C (second compound 0.00316 µM, first compound 0.001 µM) 98.7% | viability, T/C [7] 80.2% | viability, T/C [8] 113% | viability, T/C [9] 110% | viability, T/C [10] 57.4% | viability, T/C (second compound 0.01 µM, first compound 0.000316 µM) 99.7% | viability, T/C (second compound 0.01 µM, first compound 0.001 µM) 90.8% | viability, T/C [11] 80.4% | viability, T/C [12] 90.1% | viability, T/C [13] 78.4% | viability, T/C [14] 56.3% | viability, T/C (second compound 0.0316 µM, first compound 0.000316 µM) 81.8% | viability, T/C (second compound 0.0316 µM, first compound 0.001 µM) 74.7% | viability, T/C [15] 68.3% | viability, T/C [16] 63.2% | viability, T/C [17] 63.8% | viability, T/C [18] 48.6% | viability, T/C (second compound 0.1 µM, first compound 0.000316 µM) 54.4% | viability, T/C (second compound 0.1 µM, first compound 0.001 µM) 48.6% | viability, T/C [19] 37.9% | viability, T/C [20] 42% | viability, T/C [21] 39.7% | viability, T/C [22] 35.6% | viability, T/C (second compound 0.316 µM, first compound 0.000316 µM) 39.9% | viability, T/C (second compound 0.316 µM, first compound 0.001 µM) 32.6% | viability, T/C [23] 29.2% | viability, T/C [24] 33.3% | viability, T/C [25] 27.9% | viability, T/C [26] 35.3% | viability, T/C (second compound 1 µM, first compound 0.000316 µM) 38.4% | viability, T/C (second compound 1 µM, first compound 0.001 µM) 35.2% | viability, T/C [27] 35.3% | viability, T/C [28] 39.6% | viability, T/C [29] 30.2% | viability, T/C [30] 31%
0.621 nM: IC50 [4]
< 0.316 nM: IC50 [5] | IC50 [6]

Cn1ncnc1[C@H]1c2n[nH]c(=O)c3cc(F)cc(c23)N[C@@H]1c1ccc(F)cc1
inactive: viability, T/C (compound 0.000316 µM) 91.7% [middle of 4 runs] | viability, T/C (compound 0.001 µM) 113% and 106% (2×) and 109% | viability, T/C (compound 0.01 µM) 101% [middle of 4 runs] | viability, T/C (compound 0.0316 µM) 94.7% [middle of 4 runs] | viability, T/C (compound 0.1 µM) 97.3% [middle of 4 runs]
> 100 nM: IC50 (curve of compound)

CC(Nc1ccc2c(c1)OCCn1cc(N3C(=O)OCC3C(F)F)nc1-2)C(N)=O (centres undefined)
> 1000 nM: IC50 (compound alone, run of 04/24/2023)
inactive: viability, T/C (compound 0.0316 µM) 91% [middle of 8 runs]

CCN1CCN(Cc2ccc(Nc3ncc(F)c(-c4cc(F)c5nc(C)n(C(C)C)c5c4)n3)nc2)CC1 + CC(Nc1ccc2c(c1)OCCn1cc(N3C(=O)OCC3C(F)F)nc1-2)C(N)=O
inactive: viability, T/C [7] 60.1% | viability, T/C [8] 67.3% | viability, T/C [9] 66% | viability, T/C [10] 49.8% | viability, T/C (second compound 0.00316 µM, first compound 0.316 µM) 37.6% | viability, T/C (second compound 0.00316 µM, first compound 1 µM) 18.1% | viability, T/C [11] 59.6% | viability, T/C [12] 58% | viability, T/C [13] 65% | viability, T/C [14] 64.4% | viability, T/C (second compound 0.01 µM, first compound 0.316 µM) 35.6% | viability, T/C (second compound 0.01 µM, first compound 1 µM) 15.5% | viability, T/C [15] 83.7% | viability, T/C [16] 68.3% | viability, T/C [17] 56.8% | viability, T/C [18] 39% | viability, T/C [31] 28.8% | viability, T/C [32] 19.6% | viability, T/C [19] 42.6% | viability, T/C [20] 55.9% | viability, T/C [21] 51.3% | viability, T/C [22] 45.1% | viability, T/C [33] 28.9% | viability, T/C [34] 16.2% | viability, T/C [23] 43% | viability, T/C [24] 51.5% | viability, T/C [25] 56% | viability, T/C [26] 26.8% | viability, T/C [35] 23.3% | viability, T/C [36] 14.7% | viability, T/C [27] 44.3% | viability, T/C [28] 38% | viability, T/C [29] 50.3% | viability, T/C [30] 25.4% | viability, T/C [37] 22.3% | viability, T/C [38] 20.6%
32.3 nM: IC50 [5]
46.3 nM: IC50 [3]
< 3.16 nM: IC50 [4] | IC50 [6]
126 nM: IC50 [1]
168 nM: IC50 [2]

CC1(C)CCC(Nc2ncc(C(F)(F)F)c(-c3c[nH]c4c(P(C)(C)=O)c(C#N)ccc34)n2)CN1 (centres undefined) + CC(Nc1ncnc2nc[nH]c12)c1cc2cccc(Cl)c2c(=O)n1-c1ccccc1
< 31.6 nM: IC50 [3] | IC50 [4] | IC50 [5] | IC50 [6] | IC50 (curve of first compound, second compound 3.16 µM) | IC50 (curve of first compound, second compound 10 µM)
active: viability, T/C (second compound 0.0316 µM, first compound 10 µM) 5.59%
inactive: viability, T/C [17] 43% | viability, T/C [18] 46.4% | viability, T/C [31] 31.9% | viability, T/C [32] 35.3% | viability, T/C (second compound 0.0316 µM, first compound 3.16 µM) 34.8% | viability, T/C [21] 42.3% | viability, T/C [22] 36.5% | viability, T/C [33] 32.7% | viability, T/C [34] 36.9% | viability, T/C (second compound 0.1 µM, first compound 3.16 µM) 35.1% | viability, T/C (second compound 0.1 µM, first compound 10 µM) 6.35% | viability, T/C [25] 38% | viability, T/C [26] 37.1% | viability, T/C [35] 41.2% | viability, T/C [36] 36.5% | viability, T/C (second compound 0.316 µM, first compound 3.16 µM) 26.8% | viability, T/C (second compound 0.316 µM, first compound 10 µM) 6.84% | viability, T/C [29] 42% | viability, T/C [30] 35.5% | viability, T/C [37] 41% | viability, T/C [38] 34.8% | viability, T/C (second compound 1 µM, first compound 3.16 µM) 33.2% | viability, T/C (second compound 1 µM, first compound 10 µM) 7.47% | viability, T/C (second compound 3.16 µM, first compound 0.0316 µM) 30.8% | viability, T/C (second compound 3.16 µM, first compound 0.1 µM) 38.6% | viability, T/C (second compound 3.16 µM, first compound 0.316 µM) 41.8% | viability, T/C (second compound 3.16 µM, first compound 1 µM) 36.2% | viability, T/C (second compound 3.16 µM, first compound 3.16 µM) 32.6% | viability, T/C (second compound 3.16 µM, first compound 10 µM) 5.17% | viability, T/C (second compound 10 µM, first compound 0.0316 µM) 37.8% | viability, T/C (second compound 10 µM, first compound 0.1 µM) 37% | viability, T/C (second compound 10 µM, first compound 0.316 µM) 35.9% | viability, T/C (second compound 10 µM, first compound 1 µM) 35.1% | viability, T/C (second compound 10 µM, first compound 3.16 µM) 28.5% | viability, T/C (second compound 10 µM, first compound 10 µM) 5.58%

Cn1ncc(Cl)c1-c1cc(C(=O)NC(CN)Cc2cccc(F)c2)sc1Cl (centres undefined)
> 10000 nM and 1850 nM: IC50 (curve of compound)
inactive: viability, T/C (compound 0.1 µM) 84.4% [middle of 4 runs] | viability, T/C (compound 0.316 µM) 71.1% [middle of 4 runs] | viability, T/C (compound 1 µM) 60.5% [middle of 4 runs] | viability, T/C (compound 3.16 µM) 49.1% [middle of 4 runs]
